Test results published in US10730863B2, “Bridged bicyclic compounds as farnesoid X receptor modulators” (BRISTOL-MYERS SQUIBB COMPANY, priority 2017, dated 2020).

target: FXR (Homo sapiens (Human), UniProt Q96RI1); assay: FXR EC50 (FXR agonist activity reported with each example); format: cell-based
Sequence (Q96RI1 262-486): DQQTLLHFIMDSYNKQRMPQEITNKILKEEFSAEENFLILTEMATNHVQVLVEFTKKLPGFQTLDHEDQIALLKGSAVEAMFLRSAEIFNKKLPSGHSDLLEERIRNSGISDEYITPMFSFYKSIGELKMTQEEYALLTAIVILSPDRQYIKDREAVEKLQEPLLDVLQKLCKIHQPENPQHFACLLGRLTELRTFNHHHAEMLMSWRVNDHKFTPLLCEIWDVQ

SMILES | EC50
O=C(O)c1cncc(OCC23CCC(OCc4c(-c5c(Cl)cccc5Cl)noc4C4CC4)(CC2)CC3)n1 [Example 112, 6-((4-((5-cyclopropyl-3-(2,6-dichlorophenyl)isoxazol-4-yl)methoxy)bicyclo[2.2.2]octan-1-yl)methoxy)pyrazine-2-carboxylic acid] | 690 nM
O=C(O)c1cccc(OCC23CCC(OCc4c(-c5c(Cl)cncc5Cl)noc4C4CC4)(CC2)CC3)n1 [Example 113, 6-((4-((5-cyclopropyl-3-(3,5-dichloropyridin-4-yl)isoxazol-4-yl)methoxy)bicyclo[2.2.2]octan-1-yl)methoxy)picolinic acid] | 92 nM
O=C(O)c1ccc(OCC23CCC(OCc4c(-c5c(Cl)cncc5Cl)noc4C4CC4)(CC2)CC3)nc1 [Example 114, 6-((4-((5-cyclopropyl-3-(3,5-dichloropyridin-4-yl)isoxazol-4-yl)methoxy)bicyclo[2.2.2]octan-1-yl)methoxy)nicotinic acid] | 140 nM
O=C(O)c1ccc2cc(OCC34CCC(OCc5c(-c6c(Cl)cncc6Cl)noc5C5CC5)(CC3)CC4)ccc2n1 [Example 115, 6-((4-((5-cyclopropyl-3-(3,5-dichloropyridin-4-yl)isoxazol-4-yl)methoxy)bicyclo[2.2.2]octan-1-yl)methoxy)quinoline-2-carboxylic acid] | 52 nM
O=C(O)Cc1ccccc1OCC12CCC(OCc3c(-c4c(Cl)cccc4Cl)noc3C3CC3)(CC1)CC2 [Example 116, 2-(2-((4-((5-cyclopropyl-3-(2,6-dichlorophenyl)isoxazol-4-yl)methoxy)bicyclo[2.2.2]octan-1-yl)methoxy)phenyl)acetic acid] | 900 nM
NC(=O)c1cccc(OCC23CCC(OCc4c(-c5c(Cl)cccc5Cl)noc4C4CC4)(CC2)CC3)n1 [Example 117, 6-((4-((5-cyclopropyl-3-(2,6-dichlorophenyl)isoxazol-4-yl)methoxy)bicyclo[2.2.2]octan-1-yl)methoxy)picolinamide] | 310 nM
O=C(O)c1cnc(OCC23CCC(OCc4c(-c5c(Cl)cncc5Cl)noc4C4CC4)(CC2)CC3)c(F)c1 [Example 118, 6-((4-((5-cyclopropyl-3-(3,5-dichloropyridin-4-yl)isoxazol-4-yl)methoxy)bicyclo[2.2.2]octan-1-yl)methoxy)-5-fluoronicotinic acid] | 33 nM
COc1cncc(Cl)c1-c1noc(C2CC2)c1COC12CCC(COc3cc(C)c(C(=O)O)cn3)(CC1)CC2 [Example 119, 6-((4-((3-(3-chloro-5-methoxypyridin-4-yl)-5-cyclopropylisoxazol-4-yl)methoxy)bicyclo[2.2.2]octan-1-yl)methoxy)-4-methylnicotinic acid] | 120 nM
COc1cncc(Cl)c1-c1noc(C2CC2)c1COC12CCC(COc3ccc(C)c(C(=O)O)n3)(CC1)CC2 [Example 120, 6-((4-((3-(3-chloro-5-methoxypyridin-4-yl)-5-cyclopropylisoxazol-4-yl)methoxy)bicyclo[2.2.2]octan-1-yl)methoxy)-3-methylpicolinic acid] | 2300 nM
O=C(O)c1ccc(F)c(C(O)C23CCC(OCc4c(-c5c(Cl)cccc5Cl)noc4C4CC4)(CC2)CC3)c1 (centres unmarked) [Example 121, 3-((4-((5-cyclopropyl-3-(2,6-dichlorophenyl)isoxazol-4-yl)methoxy)bicyclo[2.2.2]octan-1-yl)(hydroxy)methyl)-4-fluorobenzoic acid] | 1500 nM
O=C(O)c1cc(F)c2nc(C(O)C34CCC(OCc5c(-c6c(Cl)cccc6Cl)noc5C5CC5)(CC3)CC4)sc2c1 (centres unmarked) [Example 122, 2-((4-((5-cyclopropyl-3-(2,6-dichlorophenyl)isoxazol-4-yl)methoxy)bicyclo[2.2.2]octan-1-yl)(hydroxy)methyl)-4-fluorobenzo[d]thiazole-6-carboxylic acid] | 1000 nM
NC(=O)c1cc(F)c2nc(C(O)C34CCC(OCc5c(-c6c(Cl)cccc6Cl)noc5C5CC5)(CC3)CC4)sc2c1 (centres unmarked) [Example 123, 2-((4-((5-cyclopropyl-3-(2,6-dichlorophenyl)isoxazol-4-yl)methoxy)bicyclo[2.2.2]octan-1-yl)(hydroxy)methyl)-4-fluorobenzo[d]thiazole-6-carboxamide] | 280 nM
O=C(O)c1ccc2nc(C(O)C34CCC(OCc5c(-c6c(Cl)cccc6Cl)noc5C5CC5)(CC3)CC4)sc2c1 (centres unmarked) [Example 124, 2-((4-((5-cyclopropyl-3-(2,6-dichlorophenyl)isoxazol-4-yl)methoxy)bicyclo[2.2.2]octan-1-yl)(hydroxy)methyl)benzo[d]thiazole-6-carboxylic acid] | 490 nM
O=C(O)c1ccc(C(O)C23CCC(OCc4c(-c5c(Cl)cccc5Cl)noc4C4CC4)(CC2)CC3)c(F)c1 (centres unmarked) [Example 125, 4-((4-((5-cyclopropyl-3-(2,6-dichlorophenyl)isoxazol-4-yl)methoxy)bicyclo[2.2.2]octan-1-yl)(hydroxy)methyl)-3-fluorobenzoic acid] | 1600 nM
O=C(O)c1ccc2cc(C(O)C34CCC(OCc5c(-c6c(Cl)cccc6Cl)noc5C5CC5)(CC3)CC4)ccc2c1 (centres unmarked) [Example 126, 6-((4-((5-cyclopropyl-3-(2,6-dichlorophenyl)isoxazol-4-yl)methoxy)bicyclo[2.2.2]octan-1-yl)(hydroxy)methyl)-2-naphthoic acid] | 600 nM
O=C(O)c1cccc(CC(O)C23CCC(OCc4c(-c5c(Cl)cccc5Cl)noc4C4CC4)(CC2)CC3)c1 (centres unmarked) [Example 127, 3-(2-(4-((5-cyclopropyl-3-(2,6-dichlorophenyl)isoxazol-4-yl)methoxy)bicyclo[2.2.2]octan-1-yl)-2-hydroxyethyl)benzoic acid] | 280 nM
O=C(O)c1ccc2c(C(O)C34CCC(OCc5c(-c6c(Cl)cccc6Cl)noc5C5CC5)(CC3)CC4)ccnc2c1 (centres unmarked) [Example 128, 4-((4-((5-cyclopropyl-3-(2,6-dichlorophenyl)isoxazol-4-yl)methoxy)bicyclo[2.2.2]octan-1-yl)(hydroxy)methyl)quinoline-7-carboxylic acid] | 700 nM
O=C(O)C1(c2cccc(C(O)C34CCC(OCc5c(-c6c(Cl)cccc6Cl)noc5C5CC5)(CC3)CC4)c2)CC1 (centres unmarked) [Example 129, 1-(3-((4-((5-cyclopropyl-3-(2,6-dichlorophenyl)isoxazol-4-yl)methoxy)bicyclo[2.2.2]octan-1-yl)(hydroxy)methyl)phenyl)cyclopropane-1-carboxylic acid] | 3000 nM
O=C(O)c1cccc(C#CC23CCC(OCc4c(-c5c(Cl)cccc5Cl)noc4C4CC4)(CC2)CC3)c1 [Example 130, 3-((4-((5-cyclopropyl-3-(2,6-dichlorophenyl)isoxazol-4-yl)methoxy)bicyclo[2.2.2]octan-1-yl)ethynyl)benzoic acid] | 68 nM
O=C(O)c1cccc(-n2cc(C34CCC(OCc5c(-c6c(Cl)cccc6Cl)noc5C5CC5)(CC3)CC4)nn2)c1 [Example 131, 3-(4-(4-((5-cyclopropyl-3-(2,6-dichlorophenyl)isoxazol-4-yl)methoxy)bicyclo[2.2.2]octan-1-yl)-1H-1,2,3-triazol-1-yl)benzoic acid] | 460 nM
O=C(O)c1ccnc(C#CC23CCC(OCc4c(-c5c(Cl)cccc5Cl)noc4C4CC4)(CC2)CC3)c1 [Example 132, 2-((4-((5-cyclopropyl-3-(2,6-dichlorophenyl)isoxazol-4-yl)methoxy)bicyclo[2.2.2]octan-1-yl)ethynyl)isonicotinic acid] | 3500 nM
O=C(O)c1cc(F)c2nc(C#CC34CCC(OCc5c(-c6c(Cl)cncc6Cl)noc5C5CC5)(CC3)CC4)sc2c1 [Example 133, 2-((4-((5-cyclopropyl-3-(3,5-dichloropyridin-4-yl)isoxazol-4-yl)methoxy)bicyclo[2.2.2]octan-1-yl)ethynyl)-4-fluorobenzo[d]thiazole-6-carboxylic acid] | 180 nM
O=C(O)c1ccc2nc(C34CCC(OCc5c(-c6c(Cl)cccc6Cl)noc5C5CC5)(CC3)CC4)ccc2c1 [Example 134, 2-(4-((5-cyclopropyl-3-(2,6-dichlorophenyl)isoxazol-4-yl)methoxy)bicyclo[2.2.2]octan-1-yl)quinoline-6-carboxylic acid] | 83 nM
Cn1cc(C(=O)O)c2ccc(C34CCC(OCc5c(-c6c(Cl)cccc6Cl)noc5C5CC5)(CC3)CC4)nc21 [Example 135, 6-(4-((5-cyclopropyl-3-(2,6-dichlorophenyl)isoxazol-4-yl)methoxy)bicyclo[2.2.2]octan-1-yl)-1-methyl-1H-pyrrolo[2,3-b]pyridine-3-carboxylic acid] | 9 nM
O=C(O)c1ccc2nc(C34CCC(OCc5c(-c6c(Cl)cccc6Cl)noc5C5CC5)(CC3)CC4)ccc2n1 [Example 136, 6-(4-((5-cyclopropyl-3-(2,6-dichlorophenyl)isoxazol-4-yl)methoxy)bicyclo[2.2.2]octan-1-yl)-1,5-naphthyridine-2-carboxylic acid] | 36 nM
O=C(O)c1ccnc(C23CCC(OCc4c(-c5c(Cl)cccc5Cl)noc4C4CC4)(CC2)CC3)c1 [Example 137, 2-(4-((5-cyclopropyl-3-(2,6-dichlorophenyl)isoxazol-4-yl)methoxy)bicyclo[2.2.2]octan-1-yl)isonicotinic acid] | 420 nM
O=C(O)c1ccc(C23CCC(OCc4c(-c5c(Cl)cccc5Cl)noc4C4CC4)(CC2)CC3)nc1 [Example 138, 6-(4-((5-cyclopropyl-3-(2,6-dichlorophenyl)isoxazol-4-yl)methoxy)bicyclo[2.2.2]octan-1-yl)nicotinic acid] | 440 nM
O=C(O)c1cccc2c1CCN(C(=O)C13CCC(OCc4c(-c5c(Cl)cccc5Cl)noc4C4CC4)(CC1)CC3)C2 [Example 139, 2-(4-((5-cyclopropyl-3-(2,6-dichlorophenyl)isoxazol-4-yl)methoxy)bicyclo[2.2.2]octane-1-carbonyl)-1,2,3,4-tetrahydroisoquinoline-5-carboxylic acid] | 1400 nM
O=C(O)c1ccc2c(c1)CCN(C(=O)C13CCC(OCc4c(-c5c(Cl)cccc5Cl)noc4C4CC4)(CC1)CC3)C2 [Example 140, 2-(4-((5-cyclopropyl-3-(2,6-dichlorophenyl)isoxazol-4-yl)methoxy)bicyclo[2.2.2]octane-1-carbonyl)-1,2,3,4-tetrahydroisoquinoline-6-carboxylic acid] | 1700 nM
